Patent US10782295B2, “Cysteine-reactive ligand discovery in proteomes” (THE SCRIPPS RESEARCH INSTITUTE, priority 2013, dated 2020)

Key:
Assay in all cases: competitive isoTOP-ABPP, MDA-MB-231 soluble proteome
Assay type in all cases: binding
[1] = biological target: T1, RPL24 (Homo sapiens, UniProt P83731); settings: 100 μM LDE, 60 min; peptide C*ESAFLSK
T1 construct: directly in native proteomes; endogenous in cells; host or cells: MDA-MB-231
Procedure: (§1) Here, we envisioned that isoTOP-ABPP could be advanced to discover and quantify reactions between cysteines in proteomes and any electrophilic compound. In this advanced, ‘competitive’ version of isoTOP-ABPP (FIG. 1a), a proteome is treated with an electrophile (experimental sample) or DMSO (control sample). Both proteomic samples are then labeled with the IA probe and conjugated by CuAAC to light and heavy azide-biotin tags, respectively. The light and heavy samples are then mixed and subjected to our described isoTOP-ABPP protocol for enrichment, identification, and quantification of IA-labeled cysteines^30. Electrophile-modified cysteines are quantified by measuring the MS1 chromatographic peak ratios (R values) for heavy (DMSO-treated) over light (electrophile-treated) samples, with higher R values reflecting greater sensitivity to the electrophile. In this format, competitive isoTOP-ABPP can assay electrophiles against 1000+ cysteines in parallel directly in native proteomes without requiring any chemical modification to the electrophiles themselves.
(§2) Competitive isoTOP-ABPP experiments were performed in quadruplicate using the soluble proteome of the human breast cancer cell line MDA-MB-231 cell line. Proteomes were treated with 100 μM HNE, 15d-PGJ2, or 2-HD, for 60 minutes, followed by the IA-probe (100 μM, 60 min) A total of ˜1400 cysteine reactivities were quantified across the aggregate data set, with at least 900 cysteine reactivities quantified for each LDE (FIG. 2a) more than 750 of which were quantified for all the three electrophiles.
(§3) HNE was purchased from EMD biosciences, 15d-PGJ2 was purchased from Cayman Chemicals and 2-HD was purchased from Santa Cruz Biotechnology. Proteome samples were diluted to a 4 mg protein/mL solution in PBS. For each profiling experiment, one aliquot of the proteome sample (0.5 mL) was treated with 100 μM of LDE using 5 μL of a 10 mM stock and the other aliquot was treated with 5 μL of either ethanol (for HNE and 15d-PGJ2) or DMSO (for 2-HD) as control. For the concentration-dependent profiling experiments using HNE, aliquots of the proteomes (0.5 mL each) were treated with 5, 10, 50, 100 and 500 μM of HNE using 5 μL of 0.5, 1.0, 5, 10 and 50 mM of stock solution, respectively. After 60 minutes of treatment at room temperature, both the LDE-treated and control aliquots were passed through a NAP-5 Sephadex column (GE healthcare) to remove any unreacted LDE. The volume of each aliquot was increased to 1 mL with the concentration at 2 mg/mL after this step.
(§4) Each of the control and LDE-treated proteome samples (˜2 mg protein/mL in 1 mL volume) was treated with 100 μM of IA-probe using 10 μL of a 10 mM stock in DMSO. The labeling reactions were incubated at room temperature for 1 hour. Click chemistry (acetylene-azide cycloaddition) was performed by the addition of 100 μM of either the Heavy-TEV-Tag (for the control sample) or Light-TEV-Tag (for the LDE-treated sample) (20 μL of a 5 mM stock), 1 mM TCEP (fresh 50× stock in water), 100 μM ligand (17× stock in DMSO:t-Butanol 1:4) and 1 mM CuSO4 (50× stock in water). Samples were allowed to react at room temperature for 1 hour. After the click chemistry step, the light and heavy-labeled samples were mixed together and centrifuged (5900×g, 4 min, 4° C.) to pellet the precipitated proteins.
(§5) The pellets were washed twice in cold MeOH, after which the pellet was solubilized in PBS containing 1.2% SDS via sonication and heating (5 min, 80° C.). Samples were subjected to streptavidin enrichment of probe-labeled proteins, sequential on-bead trypsin and TEV digestion, and liquid chromatography-mass spectrometry (LC-MS) analysis according to the published isoTOP-ABPP protocol^30.
(§6) IA-probe labeled peptides were identified by SEQUEST2 and DTASelect3, and the quantification of heavy/light ratios (isoTOP-ABPP ratios, R) was performed by an in-house software (CIMAGE) as previously described. […]

[2] = biological target: T2, CKAP4 (Homo sapiens, UniProt Q07065); settings: 100 μM LDE, 60 min; peptide SSSSSSASAAAAAAAASSSASC*SR
T2 construct: directly in native proteomes; endogenous in cells; host or cells: MDA-MB-231
T2 sequence (Q07065 1-602): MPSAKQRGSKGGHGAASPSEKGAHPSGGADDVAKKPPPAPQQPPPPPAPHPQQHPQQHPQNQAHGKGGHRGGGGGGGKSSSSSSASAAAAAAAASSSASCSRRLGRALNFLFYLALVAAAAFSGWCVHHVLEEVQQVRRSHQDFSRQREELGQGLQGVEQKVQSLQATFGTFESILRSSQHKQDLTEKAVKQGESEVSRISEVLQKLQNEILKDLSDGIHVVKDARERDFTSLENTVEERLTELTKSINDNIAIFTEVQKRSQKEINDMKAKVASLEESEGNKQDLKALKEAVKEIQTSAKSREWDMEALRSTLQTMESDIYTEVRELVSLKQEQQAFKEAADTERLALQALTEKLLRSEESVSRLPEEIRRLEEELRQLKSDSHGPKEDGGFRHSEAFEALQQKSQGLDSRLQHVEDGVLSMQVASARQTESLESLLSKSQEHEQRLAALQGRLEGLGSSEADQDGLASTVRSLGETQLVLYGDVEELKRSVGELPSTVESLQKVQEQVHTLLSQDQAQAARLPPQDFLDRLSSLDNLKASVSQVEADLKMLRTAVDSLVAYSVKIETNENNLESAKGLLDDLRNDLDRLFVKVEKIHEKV
Procedure: as §1, §2, §3, §4, §5, §6

[3] = biological target: T3, PSMB8 (Homo sapiens, UniProt P28062); settings: 100 μM LDE, 60 min; peptide LLSNMMC*QYR
T3 construct: directly in native proteomes; endogenous in cells; host or cells: MDA-MB-231
T3 sequence (P28062 73-276): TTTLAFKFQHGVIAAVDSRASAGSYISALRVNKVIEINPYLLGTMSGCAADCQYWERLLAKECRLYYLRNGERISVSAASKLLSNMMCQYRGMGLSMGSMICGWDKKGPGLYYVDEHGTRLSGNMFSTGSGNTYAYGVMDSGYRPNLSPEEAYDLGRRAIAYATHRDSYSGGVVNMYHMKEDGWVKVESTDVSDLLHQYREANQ
Procedure: as §1, §2, §3, §4, §5, §6

[4] = biological target: T4, IDH1 (Homo sapiens, UniProt O75874); settings: 100 μM LDE, 60 min; peptide SEGGFIWAC*K
T4 construct: directly in native proteomes; endogenous in cells; host or cells: MDA-MB-231
Procedure: as §1, §2, §3, §4, §5, §6

[5] = biological target: T5, REEP5 (Homo sapiens, UniProt Q00765); settings: 100 μM LDE, 60 min; peptide NC*MTDLLAK
T5 construct: directly in native proteomes; endogenous in cells; host or cells: MDA-MB-231
Procedure: as §1, §2, §3, §4, §5, §6

T4 sequence (O75874 whole entry): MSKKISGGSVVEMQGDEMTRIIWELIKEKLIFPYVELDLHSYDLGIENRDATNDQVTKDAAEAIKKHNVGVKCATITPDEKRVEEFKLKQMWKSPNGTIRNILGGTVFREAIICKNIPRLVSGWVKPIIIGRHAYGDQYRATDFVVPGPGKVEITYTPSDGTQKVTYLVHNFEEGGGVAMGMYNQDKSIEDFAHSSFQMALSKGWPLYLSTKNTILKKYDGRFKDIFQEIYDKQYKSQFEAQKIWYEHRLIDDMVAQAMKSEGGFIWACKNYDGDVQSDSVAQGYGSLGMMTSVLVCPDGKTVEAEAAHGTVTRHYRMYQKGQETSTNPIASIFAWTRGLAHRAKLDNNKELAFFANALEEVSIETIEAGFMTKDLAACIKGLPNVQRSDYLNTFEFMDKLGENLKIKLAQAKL
T5 sequence (Q00765 whole entry): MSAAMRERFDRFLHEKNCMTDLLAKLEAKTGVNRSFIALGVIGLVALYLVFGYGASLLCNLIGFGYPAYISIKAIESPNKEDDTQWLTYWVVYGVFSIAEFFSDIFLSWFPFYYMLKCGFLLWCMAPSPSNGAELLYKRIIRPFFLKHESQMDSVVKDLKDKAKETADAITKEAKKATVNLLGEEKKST

Structure (SMILES) | R value (isoTOP-ABPP ratio heavy/light) for IA-labeled cysteine of RPL24 [1] | R value (isoTOP-ABPP ratio heavy/light) for IA-labeled cysteine of CKAP4 [2] | R value (isoTOP-ABPP ratio heavy/light) for IA-labeled cysteine of PSMB8 [3] | R value (isoTOP-ABPP ratio heavy/light) for IA-labeled cysteine of IDH1 [4] | R value (isoTOP-ABPP ratio heavy/light) for IA-labeled cysteine of REEP5 [5]
CCCCC/C=C/C=C1/C(=O)C=C[C@@H]1C/C=C\CCCC(=O)O [PGJ2, 15-deoxy-Δ12,14-prostaglandin J2] | 6.78 | 3.33 | 5.86 | 6.66 | 7.38
CCCCCC(O)/C=C/C=O (stereo not drawn) [4-HNE, 4-Hydroxynonenal] | 1.74 | 7.73 | 1.19 | 1.3 | 7.08
CCCCCCCCCCCCC/C=C/C=O [2-HD, 2-trans-hexadecenal] | 1.25 | 1.08 | 1.05 | 1.13 | 1.18
